From DBAASP
Converted amounts (≈) assume the structure as drawn. Each block holds one molecule with its values, some of them ahead of it.

Assays:
Experiment in all cases: ≥ marks a high value that may be exact or a test limit, other limits are often not marked, values filed in µg/mL are converted to µM
[1] = system: Acinetobacter baumannii ATCC 19606
[2] = system: Klebsiella pneumoniae ATCC 700603
[3] = system: Escherichia coli BW25113
[4] = system: Staphylococcus aureus ATCC 25923
[5] = system: Pseudomonas aeruginosa ATCC 27853
[6] = system: Escherichia coli BW25113 ΔsbmA
[7] = system: Escherichia coli
[8] = system: Cronobacter muytjensii ATCC 51329
[9] = system: Salmonella enterica subsp. enterica serovar Typhimurium LT2
[10] = system: Staphylococcus aureus RN4220
[11] = system: Staphylococcus aureus Newman
[12] = system: Cronobacter sakazakii DSM 4485
[13] = system: Escherichia coli NCIMB 11843
[14] = system: Klebsiella pneumoniae NCIMB 13218
[15] = system: Staphylococcus aureus RF122
[16] = system: Staphylococcus aureus SA113
[17] = system: Staphylococcus aureus NCTC 8325-4
[18] = system: Cronobacter sakazakii DPC 6440
[19] = system: Cronobacter sakazakii ATCC BAA-894
[20] = system: Pseudomonas fluorescens NCIMB 9046
[21] = system: Staphylococcus epidermidis ATCC 14990
[22] = system: Pseudomonas aeruginosa ATCC 10145
[23] = system: Salmonella enterica subsp. enterica serovar Typhimurium ATCC 700931
[24] = system: Escherichia coli D31
[25] = system: Staphylococcus aureus ATCC 27660
[26] = system: Staphylococcus aureus USA 300 LAC
[27] = system: Klebsiella pneumoniae ATCC 13883
[28] = system: Escherichia coli ATCC 25922
[29] = system: Candida albicans ATCC 10231
[30] = system: Escherichia coli KCTC 2223
[31] = system: Pseudomonas aeruginosa H636
[32] = system: Staphylococcus aureus ATCC 15752
[33] = system: Salmonella typhimurium KCTC 2370
[34] = system: Klebsiella pneumoniae ATCC 43816
[35] = system: Escherichia coli NCTC 10418
[36] = system: Candida albicans NCTC 1467
[37] = system: Enterococcus faecalis NCTC 12697
[38] = system: Staphylococcus aureus NCTC 10788
[39] = system: Staphylococcus aureus NCTC 12493
[40] = system: Staphylococcus aureus AB6538
[41] = system: Escherichia coli AB94012
[42] = system: Pseudomonas aeruginosa ATCC 9027
[43] = system: Staphylococcus aureus AB94004

MIC [1]: 2 µM (≈ 4.82 µg/mL)
MIC [2]: 64 µM (≈ 154 µg/mL)
MIC [3]: 4 µM (≈ 9.64 µg/mL)
MIC [4]: 32 µM (≈ 77.1 µg/mL)
MIC [5]: 32 µM (≈ 77.1 µg/mL)
MIC [6]: 4 µM (≈ 9.64 µg/mL)
MIC [7]: 1.41 µM (≈ 3.41 µg/mL)
SMILES: CC[C@H](C)[C@H](NC(=O)[C@@H]1CCCN1C(=O)[C@H](CCCN=C(N)N)NC(=O)[C@H](CCCN=C(N)N)NC(=O)[C@H](Cc1c[nH]c2ccccc12)NC(=O)[C@@H](N)CCCN=C(N)N)C(=O)N[C@@H](CCCN=C(N)N)C(=O)N[C@@H](CCCN=C(N)N)C(=O)N[C@@H](CCCN=C(N)N)C(=O)N1CCC[C@H]1C(=O)N[C@H](C(=O)N[C@@H](CCCN=C(N)N)C(=O)N1CCC[C@H]1C(=O)N1CCC[C@H]1C(=O)N[C@@H](Cc1ccccc1)C(=O)N[C@@H](Cc1ccc(O)cc1)C(=O)N[C@@H](Cc1c[nH]c2ccccc12)C(=O)O)[C@@H](C)CC [RWRRPIRRRPIRPPFYW]

MIC [8]: ≥ 2500 µM
MIC [9]: ≥ 1250 µM
MIC [10]: ≥ 1250 µM
MIC [11]: ≥ 1250 µM
MIC [12]: ≥ 2500 µM
MIC [13]: ≥ 1250 µM
MIC [14]: ≥ 1250 µM
MIC [15]: ≥ 1250 µM
MIC [16]: ≥ 1250 µM
MIC [17]: ≥ 1250 µM
MIC [18]: ≥ 312 µM
MIC [19]: ≥ 2500 µM
MIC [20]: ≥ 1250 µM
SMILES: CC[C@H](C)[C@H](N)C(=O)N[C@@H](C)C(=O)N[C@@H](C)C(=O)N[C@@H](CCC(N)=O)C(=O)NCC(=O)N[C@@H](CC(C)C)C(=O)N1CCC[C@H]1C(=O)N[C@@H](CCC(N)=O)C(=O)N[C@@H](CCC(=O)O)C(=O)O [IAAQGLPQE]

MIC [21]: 0.94 µM (≈ 2.13 µg/mL)
MIC [22]: 1.88 µM (≈ 4.27 µg/mL)
MIC [23]: 1.88 µM (≈ 4.27 µg/mL)
MIC [24]: 1.88 µM (≈ 4.27 µg/mL)
MIC [25]: 1.88 µM (≈ 4.27 µg/mL)
SMILES: C[C@H](N)C(=O)N[C@@H](Cc1ccccc1)C(=O)N[C@@H](Cc1c[nH]c2ccccc12)C(=O)N[C@@H](CCCCN)C(=O)N[C@@H](CCCCN)C(=O)N[C@@H](Cc1ccccc1)C(=O)N[C@@H](Cc1ccccc1)C(=O)N[C@@H](CCCCN)C(=O)N[C@@H](CCCCN)C(=O)N[C@@H](Cc1ccccc1)C(=O)N[C@@H](Cc1ccccc1)C(=O)N[C@@H](CCCCN)C(=O)N[C@@H](CO)C(=O)N[C@@H](C)C(=O)N[C@@H](CCCCN)C(=O)N[C@@H](CCCCN)C(=O)N[C@@H](Cc1ccccc1)C(=O)NCC(=O)O [AFWKKFFKKFFKSAKKFG]

MIC [26]: 3.1 µM (≈ 3.94 µg/mL)
MIC [27]: 12.5 µM (≈ 15.9 µg/mL)
MIC [28]: 8.8 µM (≈ 11.2 µg/mL)
SMILES: CC[C@H](C)[C@H](NC(=O)[C@H](CCCCN)NC(=O)[C@H](CCCN=C(N)N)NC(=O)[C@H](CC(C)C)NC(=O)[C@H](Cc1c[nH]c2ccccc12)NC(=O)[C@H](Cc1c[nH]c2ccccc12)NC(=O)[C@@H](N)Cc1c[nH]c2ccccc12)C(=O)N[C@@H](Cc1c[nH]c2ccccc12)C(N)=O [WWWLRKIW]

MIC [29]: > 32 µM
MIC [30]: ≥ 32 µM
MIC [31]: ≥ 32 µM
MIC [32]: ≥ 32 µM
MIC [33]: ≥ 32 µM
SMILES: CC(C)C[C@H](NC(=O)[C@H](CCCCN)NC(=O)[C@H](CCCN=C(N)N)NC(=O)[C@H](CCC(N)=O)NC(=O)[C@@H](N)CO)C(=O)N[C@@H](C)C(=O)N[C@@H](C)C(=O)N[C@@H](CCCCN)C(=O)N[C@@H](CC(C)C)C(=O)N[C@H](C(=O)N[C@@H](CO)C(=O)N[C@@H](CCCCN)C(=O)O)[C@@H](C)O [SQRKLAAKLTSK]

MIC [34]: 8 µM (≈ 22.3 µg/mL)
MIC [5]: 32 µM (≈ 89 µg/mL)
MIC [35]: 8 µM (≈ 22.3 µg/mL)
MIC [36]: 16 µM (≈ 44.5 µg/mL)
MIC [37]: 8 µM (≈ 22.3 µg/mL)
MIC [38]: 8 µM (≈ 22.3 µg/mL)
MIC [39]: 8 µM (≈ 22.3 µg/mL)
SMILES: CSCC[C@H](NC(=O)[C@H](CCC(=O)O)NC(=O)[C@H](CCCCN)NC(=O)[C@H](CC(C)C)NC(=O)[C@H](CCCCN)NC(=O)CNC(=O)[C@H](Cc1c[nH]c2ccccc12)NC(=O)[C@H](CC(C)C)NC(=O)[C@@H](N)CO)C(=O)N[C@@H](CC(C)C)C(=O)N[C@@H](C)C(=O)N[C@@H](CCCCN)C(=O)N[C@@H](C)C(=O)NCC(=O)N[C@@H](CCCCN)C(=O)N[C@@H](C)C(=O)N[C@H](C(=O)N[C@@H](C)C(=O)N[C@@H](CC(N)=O)C(=O)N[C@@H](C)C(=O)N[C@H](C(=O)N[C@@H](CC(N)=O)C(=O)NCC(=O)N[C@@H](CC(C)C)C(=O)N[C@@H](C)C(=O)N[C@@H](CC(N)=O)C(=O)N[C@@H](CCC(N)=O)C(N)=O)C(C)C)C(C)C [SLWGKLKEMLAKAGKAVANAVNGLANQ]

MIC [40]: 6.77 µM (≈ 12.5 µg/mL)
MIC [5]: > 54.1 µM
MIC [41]: ≥ 54.1 µM
MIC [28]: > 54.1 µM
MIC [42]: > 54.1 µM
MIC [43]: 6.77 µM (≈ 12.5 µg/mL)
SMILES: CC[C@H](C)[C@H](NC(=O)[C@H](CO)NC(=O)[C@@H]1CCCN1C(=O)[C@H](CC(C)C)NC(=O)[C@@H](NC(=O)[C@H](CO)NC(=O)CNC(=O)[C@H](CC(C)C)NC(=O)[C@@H](NC(=O)[C@H](CO)NC(=O)CNC(=O)[C@H](CC(C)C)NC(=O)[C@H](CC(C)C)NC(=O)CNC(=O)[C@H](CC(C)C)NC(=O)[C@@H](N)Cc1ccccc1)C(C)C)C(C)C)C(=O)N[C@@H](Cc1ccccc1)C(=O)N[C@@H](CCCCN)C(N)=O [FLGLLGSVLGSVLPSIFK]
